Laboratory results: patent US10543298B2, “Salts of tetracyclines” (Hovione Scientia Limited, priority 2015, dated 2020)
Counter-ions that a name gives are not always drawn. Like-named read-outs stand apart in the source and are kept apart here.

Columns and labels:
[1] = Solubility in buffers at pH 1.0, 1.2, 4.5, 6.8 and 7.5; format: physicochemical; details: for Solubility pH = 1.0 (class) / Solubility pH = 1.0 (volume of solvent required for dissolution per gram of solute): buffer pH 1.0, KCl 0.2 M / HCl 0.2 M; for Solubility pH = 1.2 (class) / Solubility pH = 1.2 (volume of solvent required for dissolution per gram of solute): buffer pH 1.2, KCl 0.2 M / HCl 0.2 M; for Solubility pH = 4.5 (class) / Solubility pH = 4.5 (volume of solvent required for dissolution per gram of solute): buffer pH 4.5, potassium biphthalate 0.2 M / HCl 0.2 M; for Solubility pH = 6.8 (class) / Solubility pH = 6.8 (volume of solvent required for dissolution per gram of solute): buffer pH 6.8, monobasic potassium phosphate 0.2 M / NaOH 0.2 M; for Solubility pH = 7.5 (class) / Solubility pH = 7.5 (volume of solvent required for dissolution per gram of solute): buffer pH 7.5, monobasic potassium phosphate 0.2 M / NaOH 0.2 M
Experimental: The buffers at pH 1.0 and 1.2 were prepared with aqueous solutions of potassium chloride 0.2M and hydrochloric acid 0.2 M, the buffers at pH 6.8 and 7.5 were prepared with aqueous solutions of monobasic potassium phosphate 0.2 M and sodium hydroxide 0.2 M and the buffer at pH 4.5 with aqueous solutions of potassium biphthalate 0.2 M and hydrochloric acid 0.2 M, according to pharmacopoeia USP31.
The statement freely soluble means that the volume of solvent (required for dissolution) in ml per gram of solute is of from 1 to 10. The statement soluble means that the volume of solvent (required for dissolution) in ml per gram of solute is of from […]. The statement sparingly soluble means that the volume of solvent (required for dissolution) in ml per gram of solute is of from 30 to 100. The statement slightly soluble means that the volume of solvent (required for dissolution) in ml per gram of solute is of from 100 to 1000. The statement very slightly soluble means that the volume of solvent (required for dissolution) in ml per gram of solute is from 1000 to 10 000.

[2] = Color classification according to the Munsell color system; format: physicochemical; details: for Munsell Classification: Munsell color system
Description: The table below presents the color classification of the doxycycline salts according to the Munsell color system.

[3] = pH of aqueous solutions of the salts; details: for pH: aqueous solution, concentration approximately 10^-3 M
[4] = background statement on the acidic salt; cited from earlier work

Molecule | Solubility pH = 1.0 (class) [1] | Solubility pH = 1.0 (volume of solvent required for dissolution per gram of solute) [1] | Solubility pH = 1.2 (class) [1] | Solubility pH = 1.2 (volume of solvent required for dissolution per gram of solute) [1] | Solubility pH = 4.5 (class) [1] | Solubility pH = 4.5 (volume of solvent required for dissolution per gram of solute) [1] | Solubility pH = 6.8 (class) [1] | Solubility pH = 6.8 (volume of solvent required for dissolution per gram of solute) [1] | Solubility pH = 7.5 (class) [1] | Solubility pH = 7.5 (volume of solvent required for dissolution per gram of solute) [1] | Color Description [2] | Munsell Classification [2] | Munsell Classification ([2]; listed as doxycycline hyclate) | Solubility compared with doxycycline monohydrate ([1]; pH 4.5, pH 6.8 and pH 7.5) | pH [3] | Solubility compared with the hydrochloride / hyclate ([1]; pH 1.0, 1.2, 4.5, 6.8 and 7.5 (all pH values tested)) | Solubility compared with doxycycline monohydrate ([1]; pH 1.0 and pH 1.2) | pH compared with the marketed form ([3]; comparison of the values of the pH table) | pH [4]
CCO.C[C@H]1c2cccc(O)c2C(=O)C2=C(O)[C@]3(O)C(=O)C(C(N)=O)=C(O)[C@@H](N(C)C)[C@@H]3[C@@H](O)[C@@H]21.C[C@H]1c2cccc(O)c2C(=O)C2=C(O)[C@]3(O)C(=O)C(C(N)=O)=C(O)[C@@H](N(C)C)[C@@H]3[C@@H](O)[C@@H]21.Cl.Cl.O [Doxycycline Hyclate, reference compound] | Soluble (The statement soluble means that the volume of solvent (required for dissolution) in ml per gram of solute is of from 1 to 30) | 16 ml/g | Freely soluble (The statement freely soluble means that the volume of solvent (required for dissolution) in ml per gram of solute is of from 1 to 10) | 3 ml/g | Sparingly (The statement sparingly soluble means that the volume of solvent (required for dissolution) in ml per gram of solute is of from 30 to 100) | 53 ml/g | Freely soluble (The statement freely soluble means that the volume of solvent (required for dissolution) in ml per gram of solute is of from 1 to 10) | 2 ml/g | Sparingly (The statement sparingly soluble means that the volume of solvent (required for dissolution) in ml per gram of solute is of from 30 to 100) | 100 ml/g | Yellowish | 10Y 9/3.5 NN | yellowish 10Y | – | – | – | – | – | –
CC1c2cccc(O)c2C(O)=C2C(=O)C3(O)C(O)=C(C(N)=O)C(=O)C(N(C)C)C3C(O)C21.O=C(O)C=CC(=O)O (stereo not shown) [Doxycycline Maleate] | Soluble (The statement soluble means that the volume of solvent (required for dissolution) in ml per gram of solute is of from 1 to 30) | 13 ml/g | Soluble (The statement soluble means that the volume of solvent (required for dissolution) in ml per gram of solute is of from 1 to 30) | 13 ml/g | Sparingly (The statement sparingly soluble means that the volume of solvent (required for dissolution) in ml per gram of solute is of from 30 to 100) | 63 ml/g | Sparingly (The statement sparingly soluble means that the volume of solvent (required for dissolution) in ml per gram of solute is of from 30 to 100) | 83 ml/g | Sparingly (The statement sparingly soluble means that the volume of solvent (required for dissolution) in ml per gram of solute is of from 30 to 100) | 77 ml/g | Off-white | 9.25/10Y/2.5 NN | – | higher than that of the monohydrate | 3.3 | – | – | – | –
C[C@H]1c2cccc(O)c2C(=O)C2=C(O)[C@]3(O)C(=O)C(C(N)=O)=C(O)[C@@H](N(C)C)[C@@H]3[C@@H](O)[C@@H]21 [Doxycycline Monohydrate, reference compound] | Soluble (The statement soluble means that the volume of solvent (required for dissolution) in ml per gram of solute is of from 1 to 30) | 19 ml/g | Soluble (The statement soluble means that the volume of solvent (required for dissolution) in ml per gram of solute is of from 1 to 30) | 25 ml/g | Slightly (The statement slightly soluble means that the volume of solvent (required for dissolution) in ml per gram of solute is of from 100 to 1000) | 1000 ml/g | Slightly (The statement slightly soluble means that the volume of solvent (required for dissolution) in ml per gram of solute is of from 100 to 1000) | 333 ml/g | Slightly (The statement slightly soluble means that the volume of solvent (required for dissolution) in ml per gram of solute is of from 100 to 1000) | 1000 ml/g | Yellowish | 10Y/9/3.5 NN | – | – | – | – | – | – | –
C[C@H]1c2cccc(O)c2C(O)=C2C(=O)[C@]3(O)C(O)=C(C(N)=O)C(=O)[C@@H](N(C)C)[C@@H]3[C@@H](O)[C@@H]21.O=C(O)C(=O)O [Doxycycline Oxalate] | Slightly (The statement slightly soluble means that the volume of solvent (required for dissolution) in ml per gram of solute is of from 100 to 1000) | 500 ml/g | Very Slightly (The statement very slightly soluble means that the volume of solvent (required for dissolution) in ml per gram of solute is from 1000 to 10 000) | 1900 ml/g | Slightly (The statement slightly soluble means that the volume of solvent (required for dissolution) in ml per gram of solute is of from 100 to 1000) | 500 ml/g | Slightly (The statement slightly soluble means that the volume of solvent (required for dissolution) in ml per gram of solute is of from 100 to 1000) | 125 ml/g | Slightly (The statement slightly soluble means that the volume of solvent (required for dissolution) in ml per gram of solute is of from 100 to 1000) | 143 ml/g | Yellowish | 5Y/9/4 NN | – | similar | 3.2 | lower than that of the hyclate | lower than that of the monohydrate | – | –
CN(C)c1ccc(O)c2c1C[C@H]1C[C@H]3[C@H](N(C)C)C(O)=C(C(N)=O)C(=O)[C@@]3(O)C(O)=C1C2=O [Minocycline Base, 7-dimethylamino-6-demethyl-6-deoxytetracycline, reference compound] | – | – | – | – | – | – | – | – | – | – | Yellowish | 7.5Y/9/10 NN | – | – | 6.8 | – | – | – | –
CN(C)C1C(O)=C(C(N)=O)C(=O)C2(O)C(O)=C3C(=O)c4c(O)cccc4C(C)(O)C3CC12.O=C(O)C(=O)O (stereo not shown) [Tetracycline Oxalate] | – | – | – | – | – | – | – | – | – | – | Yellowish | 10Y/9/8 NN | – | – | 3.2 | – | – | less acidic than the pH of tetracycline | –
CN(C)[C@@H]1C(O)=C(C(N)=O)C(=O)[C@@]2(O)C(O)=C3C(=O)c4c(O)cccc4[C@@](C)(O)[C@H]3C[C@@H]12 [Tetracycline] | – | – | – | – | – | – | – | – | – | – | Yellowish | 5Y/9/4 NN | – | – | – | – | – | – | –
C[C@H]1c2cccc(O)c2C(=O)C2=C(O)[C@]3(O)C(=O)C(C(N)=O)=C(O)[C@@H](N(C)C)[C@@H]3[C@@H](O)[C@@H]21 [doxycycline hydrochloride] | – | – | – | – | – | – | – | – | – | – | – | – | – | – | – | – | – | – | about 3
Demeclocycline Maleate | Soluble (The statement soluble means that the volume of solvent (required for dissolution) in ml per gram of solute is of from 1 to 30) | – | Soluble (The statement soluble means that the volume of solvent (required for dissolution) in ml per gram of solute is of from 1 to 30) | – | Sparingly (The statement sparingly soluble means that the volume of solvent (required for dissolution) in ml per gram of solute is of from 30 to 100) | – | Sparingly (The statement sparingly soluble means that the volume of solvent (required for dissolution) in ml per gram of solute is of from 30 to 100) | – | Sparingly (The statement sparingly soluble means that the volume of solvent (required for dissolution) in ml per gram of solute is of from 30 to 100) | – | Yellowish | 5Y/9/2 NN | – | – | 3.4 | – | – | – | –
Demeclocycline Oxalate | – | – | – | – | – | – | – | – | – | – | Yellowish | 5Y/9/2.5 NN | – | – | 3.3 | – | – | – | –
Minocycline Oxalate | – | – | – | – | – | – | – | – | – | – | Yellowish | 10/Y/9/3.5 NN | – | – | 3.0 | – | – | – | –
